These sequences were tested on PBMC (assay: ELISPOT (IFNγ, IL-5, IL-10, IL-17, IL-21) of PBMC expanded 14 days with Bla g extract, then stimulated with peptides or peptide pools). Details: non-redundant epitopes; sensitized donors.
Type: cell-based, human
Set-up: key to Average Magnitude of Response: spot forming cells (SFC) per 10^6 PBMC; Response Rate per Subject: unit not given here
Method: PBMC Isolation and Cell Cultures: PBMC (peripheral blood mononuclear cells) were isolated from 450 mL (one unit) of blood by density gradient centrifugation as described and cryopreserved. For in vitro expansion of PBMC for peptide screening, cells were cultured in RPMI1640 (Omega Scientific)+5% human AB serum (Gemini Bioscience), GlutaMAX (Gibco), and penicillin/streptomycin (Omega Scientific) at 2×10^6 per mL, stimulated with 10 ug/mL Bla g extract (Greer), and incubated at 37° C. in 5% CO2. Every three days, IL-2 and IL-7 (10 U/mL) were added to the cultures. Cells were harvested for peptide screening at day 14.
ELISPOT Assays: Production of IFNγ, IL-5, IL-17, IL-10, and IL-21 (as representative of TH1, TH2, TH17, TR1, and […], respectively) in response to peptide stimulation was measured by ELISPOT as described previously. […] In brief, 1×10^5 cells per well were incubated with peptide, peptide pool, or Bla g extract (10, 5, and 10 ug/ml, respectively) on anti-lymphokine antibody coated ELISPOT plates (Millipore #MSIPS4510) for 22 hours. Subsequently, secondary anti-lymphokine antibodies were added and incubated for 2 hours, washed, and avidin-peroxidase complex added for 1 hour. Plates were washed and spots developed with 3-amino-9-ethylcarbazole (Sigma #A6926) and Vector Blue (Vector #SK-5300) for IFNγ/IL-5 and IL-10/IL-17 dual plates or TMB (Sigma #T0565) for single IL-21. Criteria for peptide pool positivity were at least 100 spot forming cells (SFC) per 10^6 PBMC, p<0.05, and stimulation index≥2. Criteria for peptide positivity were identical except with a threshold of 20 SFCs.
We synthetized overlapping peptide sets of 15 amino acids in length overlapping by 10 residues and covering the entire sequence of known Bla g Allergens, i.e. Bla g 1-7, 9 and 11, referred from hereafter collectively as BLAGA. A total of 809 BLAGA peptides were arranged in pools, encompassing on average 20 peptides.
To assess T cell reactivity, we utilized a strategy applied to the definition of epitopes from various allergen sources^15,16 utilizing in vitro stimulation with allergen extracts. Here, PBMC from each subject were stimulated in vitro with Bla g extract. After 14 days, pools of overlapping 15-mer peptides from the BLAGA were tested for responses, and positive pools deconvoluted to identify the specific epitopes. As readout, we utilized ELISPOT assays specific for IL-5, IFNγ, IL-10, IL-17 and IL-21, chosen as representative of TH2, TH1, TR1, TH17 and TFH reactivity, respectively.
For EMIQHYTLDQVNQHK, the “Average Magnitude of Response” value was 3.5 and the “Response Rate per Subject” value was 2.9.
ATDYENYAIVEGCPA was tested, and the “Average Magnitude of Response” value was 32.7 and the “Response Rate per Subject” value was 1.4.
In the case of LVYPTSLGFPLKLVL, the “Average Magnitude of Response” value is reported as 4.4 and the “Response Rate per Subject” value is reported as 2.9.
In the case of “NGGYLAAGKLTWADF (listed as Blattella germanica)”, the “Average Magnitude of Response” value is reported as 58.5 and the “Response Rate per Subject” value is reported as 5.7.
KDDWENLEIDMIVDT was tested, and the “Average Magnitude of Response” value was 8.4 and the “Response Rate per Subject” value was 2.9.
PLKKETIPYYTKKFD was tested, and the “Average Magnitude of Response” value was 14.2 and the “Response Rate per Subject” value was 5.7.
For PVDQIIAIATDYLAN, the “Average Magnitude of Response” value was 7.5 and the “Response Rate per Subject” value was 2.9.
With “ALREKVLGLPAIKAW (listed as Blattella germanica)” the “Average Magnitude of Response” value was 77.1 and the “Response Rate per Subject” value was 12.9.
In the case of “KNRTTIRGRTKFEGN (listed as Blattella germanica)”, the “Average Magnitude of Response” value is reported as 81.7 and the “Response Rate per Subject” value is reported as 2.9.
VVRLQSWQSEMLRMN was tested, and the “Average Magnitude of Response” value was 6.4 and the “Response Rate per Subject” value was 2.9.
QDVHKKLREWLSKNV was tested, and the “Average Magnitude of Response” value was 8.5 and the “Response Rate per Subject” value was 1.4.
For DKKVYRVFESTVTGR, the “Average Magnitude of Response” value was 4.4 and the “Response Rate per Subject” value was 2.9.
For KNMTYVNTSLVLAFS, the “Average Magnitude of Response” value was 8.4 and the “Response Rate per Subject” value was 2.9.
In the case of GKDYILRVSQLGHTV, the “Average Magnitude of Response” value is reported as 3.4 and the “Response Rate per Subject” value is reported as 4.3.
“YFVAILDYLNHMAKE (listed as Blattella germanica)” was tested, and the “Average Magnitude of Response” value was 137.2 and the “Response Rate per Subject” value was 15.7.
For HGRTFSSLFQVANQY, the “Average Magnitude of Response” value was 8.4 and the “Response Rate per Subject” value was 4.3.
In the case of STSCNVVVASQECVG, the “Average Magnitude of Response” value is reported as 4.2 and the “Response Rate per Subject” value is reported as 4.3.
In the case of RVPFSHDDRLGFLTF, the “Average Magnitude of Response” value is reported as 34.2 and the “Response Rate per Subject” value is reported as 7.1.
For AKRFAKWALPLYNKP, the “Average Magnitude of Response” value was 12.2 and the “Response Rate per Subject” value was 1.4.
SPYFVTNTEKMITEF was tested, and the “Average Magnitude of Response” value was 13.6 and the “Response Rate per Subject” value was 2.9.
ISDFRAAIANYHYDA was tested, and the “Average Magnitude of Response” value was 216.2 and the “Response Rate per Subject” value was 18.6.
With “GIRIYVDVVLNQMSG (listed as Blattella germanica)” the “Average Magnitude of Response” value was 62.5 and the “Response Rate per Subject” value was 4.3.
For FYTEFDMENNRVGFA, the “Average Magnitude of Response” value was 11.3 and the “Response Rate per Subject” value was 2.9.
With YLGKQFGLSGKDDWE the “Average Magnitude of Response” value was 22.6 and the “Response Rate per Subject” value was 8.6.
RILLRLHRCFQVLGR was tested, and the “Average Magnitude of Response” value was 13.5 and the “Response Rate per Subject” value was 1.4.
SINLMFSQMYHAQLA was tested, and the “Average Magnitude of Response” value was 4.3 and the “Response Rate per Subject” value was 1.4.
AKGMMHMIKKGANGS was tested, and the “Average Magnitude of Response” value was 18.7 and the “Response Rate per Subject” value was 2.9.
With DVLDIGGLKVQKQTF the “Average Magnitude of Response” value was 3.5 and the “Response Rate per Subject” value was 2.9.
In the case of VEALFLLMKADPSIH, the “Average Magnitude of Response” value is reported as 4.2 and the “Response Rate per Subject” value is reported as 1.4.
With KLGDKEMIQHYTLDQ the “Average Magnitude of Response” value was 5.0 and the “Response Rate per Subject” value was 1.4.
RSEERLATATAKLAE was tested, and the “Average Magnitude of Response” value was 13.3 and the “Response Rate per Subject” value was 1.4.
For RHNSAYKLHFNAFEY, the “Average Magnitude of Response” value was 44.0 and the “Response Rate per Subject” value was 1.4.
With QIIAIATDYLANDAE the “Average Magnitude of Response” value was 7.5 and the “Response Rate per Subject” value was 2.9.
With YHYDADENSKQKKWD the “Average Magnitude of Response” value was 3.7 and the “Response Rate per Subject” value was 2.9.
LKNYQLDSELRIKAF was tested, and the “Average Magnitude of Response” value was 3.2 and the “Response Rate per Subject” value was 1.4.
DRRGEMFYYTRQQLY was tested, and the “Average Magnitude of Response” value was 3.5 and the “Response Rate per Subject” value was 1.4.
In the case of VVFDTGSSNLWVPSK, the “Average Magnitude of Response” value is reported as 4.7 and the “Response Rate per Subject” value is reported as 4.3.
With AVLALCATDTLANED the “Average Magnitude of Response” value was 3.0 and the “Response Rate per Subject” value was 2.9.
SHVHFRFVPSAAVEF was tested, and the “Average Magnitude of Response” value was 3.3 and the “Response Rate per Subject” value was 1.4.
In the case of LIPVDQIIAIATDYL, the “Average Magnitude of Response” value is reported as 9.8 and the “Response Rate per Subject” value is reported as 1.4.
For GEPIRFLLSYGEKDF, the “Average Magnitude of Response” value was 3.3 and the “Response Rate per Subject” value was 2.9.
With RIKAFLALVECPCNK the “Average Magnitude of Response” value was 4.2 and the “Response Rate per Subject” value was 1.4.
In the case of KALQNAESEVAALNR, the “Average Magnitude of Response” value is reported as 6.0 and the “Response Rate per Subject” value is reported as 1.4.
For MAPSYKLTYCPVKAL, the “Average Magnitude of Response” value was 8.8 and the “Response Rate per Subject” value was 4.3.
FSQMYHAQLAFSTAF was tested, and the “Average Magnitude of Response” value was 3.4 and the “Response Rate per Subject” value was 2.9.
In the case of KLAASDSKSLLRKYL, the “Average Magnitude of Response” value is reported as 43.8 and the “Response Rate per Subject” value is reported as 7.1.
RCNNVGIRIYVDVVL was tested, and the “Average Magnitude of Response” value was 13.0 and the “Response Rate per Subject” value was 2.9.
